Laboratory results as given in patent publication US10123994B2, “Heterocyclic derivative having AMPK-activating activity” (SHIONOGI & CO., LTD., priority 2014, dated 2018).

Molecular target: T1, Human AMPK α2β2γ1 (Homo sapiens, UniProt O43741+P54619+P54646)
T1 construct: The full length cDNAs of human AMPK β2 (NM_005399.3) and human AMPK α2 (NM_006252.3); The full length cDNAs of human AMPK β2 (NM_005399.3); the full length cDNA of human AMPK γ1 (NM_002733.3); 6xHis (N); made in house; host or cells: Escherichia coli BL21 CodonPlus (DE3)-RIL (AMPK); BL21 Star (DE3) (CaMKK2)
T1 sequence (P54646 whole entry): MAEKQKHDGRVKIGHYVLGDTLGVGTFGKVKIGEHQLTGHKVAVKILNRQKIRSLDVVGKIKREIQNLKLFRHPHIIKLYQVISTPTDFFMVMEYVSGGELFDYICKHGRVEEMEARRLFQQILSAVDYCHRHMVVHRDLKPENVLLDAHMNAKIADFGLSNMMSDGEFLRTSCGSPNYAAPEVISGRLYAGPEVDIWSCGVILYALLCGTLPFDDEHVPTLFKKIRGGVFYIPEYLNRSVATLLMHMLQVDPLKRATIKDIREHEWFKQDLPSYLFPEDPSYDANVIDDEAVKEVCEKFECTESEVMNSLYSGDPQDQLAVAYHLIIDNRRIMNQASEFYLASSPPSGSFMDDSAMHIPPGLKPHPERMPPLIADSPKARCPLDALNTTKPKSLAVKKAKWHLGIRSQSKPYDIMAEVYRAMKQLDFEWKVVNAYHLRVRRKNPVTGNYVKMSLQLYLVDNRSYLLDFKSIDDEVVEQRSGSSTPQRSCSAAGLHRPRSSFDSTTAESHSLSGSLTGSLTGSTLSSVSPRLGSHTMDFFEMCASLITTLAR
T1 sequence (O43741 whole entry): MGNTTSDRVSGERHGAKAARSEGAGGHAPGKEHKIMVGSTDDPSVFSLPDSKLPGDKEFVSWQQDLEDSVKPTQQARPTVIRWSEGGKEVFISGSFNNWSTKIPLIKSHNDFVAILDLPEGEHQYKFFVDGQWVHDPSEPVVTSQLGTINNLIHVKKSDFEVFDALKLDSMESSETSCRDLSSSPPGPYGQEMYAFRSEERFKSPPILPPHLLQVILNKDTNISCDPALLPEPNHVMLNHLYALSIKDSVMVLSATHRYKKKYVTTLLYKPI
T1 sequence (P54619 whole entry): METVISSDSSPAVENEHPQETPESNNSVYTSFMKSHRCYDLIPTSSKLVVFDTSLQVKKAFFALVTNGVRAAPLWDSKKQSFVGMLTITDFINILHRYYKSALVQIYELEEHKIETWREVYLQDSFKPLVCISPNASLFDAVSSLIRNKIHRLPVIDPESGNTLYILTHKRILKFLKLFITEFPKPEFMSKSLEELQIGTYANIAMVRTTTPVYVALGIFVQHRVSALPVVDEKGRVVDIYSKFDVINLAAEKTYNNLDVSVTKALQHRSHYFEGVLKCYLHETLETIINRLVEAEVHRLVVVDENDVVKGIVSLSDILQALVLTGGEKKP
Experiment: Test Example 2: AMPK activator evaluation, mobility-shift kinase assay after CaMKK2 phosphorylation
Type: biochemical
Conditions: for EC150: compound concentration showing 150% relative to the control (100%); for Emax: maximum rate of increase in activity within the measurement range, control = 100%
Description: The full length cDNAs of human AMPK β2 (NM_005399.3) and human AMPK α2 (NM_006252.3) were inserted into the MCS1 and MCS2 of the pETDuet-1 vector to prepare a human AMPK β2 and human AMPK α2 (6× His tag at the 5′ terminus) expressing plasmid. The plasmid was cotransfected with an expression plasmid, in which the full length cDNA of human AMPK γ1 (NM_002733.3) had been inserted into pET28b(+), into BL21 CodonPlus (DE3)-RIL to obtain an expression strain. The expression strain was cultured in TB medium, followed by induction with 0.5 mM IPTG, and cultured at 25° C. for 3 hours and then harvested. After ultrasonication, supernatant was collected and applied to Histrap FF column (GE) and RESOUECE Q column (GE) to prepare 12.5 mg of purified sample containing three types of subunit from 1.8 L of broth.
An expression vector, in which the full length cDNA of human CAMKK β (NM_172226.1) had been inserted into pGEX-6P-3, was transfected into BL21 Star (DE3). The expression strain was cultured in TB medium, followed by induction with 0.5 mM IPTG, and cultured at 25° C. for 3 hours and then harvested. After ultrasonication, supernatant was collected and applied to GSTrap FF column (GE) to prepare 14 mg of GST-fused CAMKK β from 720 ml of broth.
Thus, phosphorylation treatment was carried out as pretreatment.
Human AMPK α2β2γ1 in an amount to give a conversion rate of approximately 10% by reaction for 2 hours, and CaMKK2 in an amount capable of sufficiently imparting activity to AMPK for one hour were mixed in a buffer solution consisting of a 50 mM HEPES-NaOH buffer solution (pH 7.0), 100 mM NaCl, 5 mM magnesium chloride, 0.1% bovine serum albumin, 0.2 mM sodium orthovanadate(V), 1 mM ethylene glycol-bis(2-aminoethyl ether)-N,N,N′,N′-tetraacetic acid (EGTA), 5 mM disodium β-glycerophosphate, 1 mM dithiothreitol and 0.2 mM ATP, and the obtained liquid was left to stand at 25° C. for 1 to 1.5 hours to sufficiently phosphorylate AMPK.
After that, to the enzyme liquid, which had been subjected to phosphorylation treatment, a compound dissolved in DMSO was added so as to have a 1% DMSO concentration. The obtained liquid was left to stand for 10 minutes.
To the liquid, a substrate solution consisting of a 50 mM HEPES-NaOH buffer solution (pH 7.0), 100 mM NaCl, 10 mM magnesium chloride, 0.1% bovine serum albumin, 0.2 mM sodium orthovanadate(V), 1 mM ethylene glycol-bis(2-aminoethyl ether)-N,N,N′,N′-tetraacetic acid (EGTA), 5 mM disodium β-glycerophosphate, 2 mM dithiothreitol, 0.4 mM ATP and 3 μM FL-Peptide 7 (manufactured by Caliper Life Sciences, Inc.) was added in equal amount (10 μl in total). The obtained liquid was allowed to react at 25° C. for 2 hours, and 10 μl of 20 mM EDTA was then added thereto to stop the reaction.
To detect phosphorylated fluorescent substrates, the reaction liquid was applied to a measuring device, LabChip EZ Reader II manufactured by Caliper Life Science, Inc., for detecting fluorescence by using differences in mobility due to differences in charge. The setting conditions for the device were pressure, −1.5 PSI; upstream voltage, −2250 V; downstream voltage, −400 V; post sample buffer sip time, 40 seconds; final delay, 120 seconds; and peak order, Product First.
A conversion rate was calculated from the peak heights of the resulting substrate and product. The conversion rate when not containing a compound was used as a control, and a concentration dependent curve was made by plotting the rate of increase in activity to the control at each concentration of a compound.

| Compound | EC150 | Emax |
| --- | --- | --- |
| O[C@@H]1CO[C@H]2[C@@H]1OC[C@H]2Oc1nc2nc(NCc3c(F)cccc3F)c(F)cc2[nH]1 [Compound I-1-10] | 740 nM | 406% |
| Cn1cc(-c2cc(F)c(CNc3nc4nc(O[C@@H]5CO[C@H]6[C@@H]5OC[C@H]6O)[nH]c4cc3Cl)c(F)c2)ccc1=O [Compound I-2-217] | 47 nM | 637% |
| Cn1cc(-c2cc(F)c3c(c2)CCC3Nc2nc3nc(O[C@@H]4CO[C@H]5[C@@H]4OC[C@H]5O)[nH]c3cc2Cl)cn1 (stereo partly shown) [Compound I-2-239] | 5.6 nM | 535% |
| O=C(c1cc(F)c2c(c1)CCC2Nc1nc2nc(O[C@@H]3CO[C@H]4[C@@H]3OC[C@H]4O)[nH]c2cc1Cl)N1CCCCC1 (stereo partly shown) [Compound I-2-147] | 4.5 nM | 532% |
| CN(C)CCCc1cc(F)c(CNc2nc3nc(O[C@@H]4CO[C@H]5[C@@H]4OC[C@H]5O)[nH]c3cc2Cl)c(F)c1 [Compound I-2-222] | 16 nM | 532% |
| COCCOc1cc(F)c(CSc2nc3nc(O[C@@H]4CO[C@H]5[C@@H]4OC[C@H]5O)[nH]c3cc2Cl)c(F)c1 [Compound I-1-4] | 40 nM | 766% |
| COCCOc1cc(F)c2c(c1)CC[C@@H]2Nc1nc2nc(O[C@@H]3CO[C@H]4[C@@H]3OC[C@H]4O)[nH]c2cc1Cl [Compound I-2-220] | 1.1 nM | 669% |
| O=C(c1cc(F)c2c(c1)CCC2Nc1nc2nc(O[C@@H]3CO[C@H]4[C@@H]3OC[C@H]4O)[nH]c2cc1Cl)N1CC[C@H](F)C1 (stereo partly shown) [Compound I-2-153] | 5.2 nM | 546% |
| COCCOc1cc(F)c2c(c1)CCC2Nc1nc2nc(O[C@@H]3CO[C@H]4[C@@H]3OC[C@H]4O)[nH]c2cc1Cl (stereo partly shown) [Compound I-1-38] | 1.2 nM | 568% |
| CC(=O)NC(C)(C)c1ccc(Oc2nc3nc(NCc4c(F)cccc4F)c(Cl)cc3[nH]2)cn1 [Compound I-1-126] | 170 nM | 332% |
| O[C@@H]1CO[C@H]2[C@@H]1OC[C@H]2Oc1nc2nc(NCc3c(F)cc(OCC4CNCCO4)cc3F)c(Cl)cc2[nH]1 (stereo partly shown) [Compound I-2-119] | 13 nM | 581% |
| CS(=O)(=O)CCCOc1cc(F)c(CNc2nc3nc(O[C@@H]4CO[C@H]5[C@@H]4OC[C@H]5O)[nH]c3cc2Cl)c(F)c1 [Compound I-2-91] | 5.4 nM | 532% |
| Oc1cccc(F)c1CNc1nc2nc(O[C@@H]3CO[C@H]4[C@@H]3OC[C@H]4O)[nH]c2cc1Cl [Compound I-2-1] | 30 nM | 588% |
| O[C@@H]1CO[C@H]2[C@@H]1OC[C@H]2Oc1nc2nc(NCc3c(F)cc(C4=CCNCC4)cc3F)c(Cl)cc2[nH]1 [Compound I-2-209] | 22 nM | 558% |
| CCOCCOc1cc(F)c2c(c1)CCC2Nc1nc2nc(O[C@@H]3CO[C@H]4[C@@H]3OC[C@H]4O)[nH]c2cc1Cl (stereo partly shown) [Compound I-2-223] | 2.8 nM | 649% |
| O[C@@H]1CO[C@H]2[C@@H]1OC[C@H]2Oc1nc2nc(NC3CCc4cccnc43)c(Cl)cc2[nH]1 (stereo partly shown) [Compound I-1-116] | 94 nM | 450% |
| Cn1cc(-c2cc(F)c(CNc3nc4nc(O[C@@H]5CO[C@H]6[C@@H]5OC[C@H]6O)[nH]c4cc3Cl)c(F)c2)cn1 [Compound I-1-39] | 26 nM | 506% |
| O=C(Nc1nc2nc(O[C@@H]3CO[C@H]4[C@@H]3OC[C@H]4O)[nH]c2cc1Cl)c1ccc2ccccc2c1 [Compound I-1-80] | 880 nM | 397% |

| Compound | EC150 | Emax |
| --- | --- | --- |
| O[C@@H]1CO[C@H]2[C@@H]1OC[C@H]2Oc1nc2nc(NCc3c(F)cc(-c4cnn(CCN5CCOCC5)c4)cc3F)c(Cl)cc2[nH]1 [Compound I-2-228] | 8.5 nM | 528% |
| O[C@@H]1CO[C@H]2[C@@H]1OC[C@H]2Oc1nc2nc(NCc3c(F)cccc3F)c(C(F)(F)F)cc2[nH]1 [Compound I-2-22] | 130 nM | 480% |
| O[C@@H]1CO[C@H]2[C@@H]1OC[C@H]2Oc1nc2nc(NCc3c(F)cc(Cl)cc3F)c(Cl)cc2[nH]1 [Compound I-1-14] | 42 nM | 750% |
| O[C@@H]1CO[C@H]2[C@@H]1OC[C@H]2Oc1nc2nc(NCc3cccs3)c(Cl)cc2[nH]1 [Compound I-1-52] | 100 nM | 407% |
| CCc1ccc(CNc2nc3nc(O[C@@H]4CO[C@H]5[C@@H]4OC[C@H]5O)[nH]c3cc2Cl)s1 [Compound I-2-75] | 26 nM | 542% |
| O[C@@H]1CO[C@H]2[C@@H]1OC[C@H]2Oc1nc2nc(/C=C/c3ccc(F)cc3F)c(Cl)cc2[nH]1 [Compound I-2-244] | 92 nM | 517% |
| OCCCOc1cc(F)c(CNc2nc3nc(O[C@@H]4CO[C@H]5[C@@H]4OC[C@H]5O)[nH]c3cc2Cl)c(F)c1 [Compound I-1-36] | 16 nM | 475% |
| CS(=O)(=O)NCCOc1cc(F)c(CNc2nc3nc(O[C@@H]4CO[C@H]5[C@@H]4OC[C@H]5O)[nH]c3cc2Cl)c(F)c1 [Compound I-2-93] | 9.9 nM | 602% |
| OCCO[C@@H]1CO[C@H]2[C@@H]1OC[C@H]2Oc1nc2nc(NCc3c(F)cccc3F)c(Cl)cc2[nH]1 [Compound I-1-119] | 84 nM | 432% |
| O[C@@H]1CO[C@H]2[C@@H]1OC[C@H]2Oc1nc2nc(NCc3c(F)cccc3F)c(Cl)cc2[nH]1 [Compound I-1-1] | 29 nM | 484% |
| OCCOc1cc(F)c(CNc2nc3nc(O[C@@H]4CO[C@H]5[C@@H]4OC[C@H]5O)[nH]c3cc2Cl)c(F)c1 [Compound I-1-15] | 5.8 nM | 894% |
| COCCOc1cc(F)c(CNc2nc3nc(O[C@@H]4CO[C@H]5[C@@H]4OC[C@H]5O)[nH]c3cc2Cl)c(F)c1 [Compound I-1-13] | 17 nM | 838% |
| COCCOc1cc(F)c2c(c1)OCC2Nc1nc2nc(O[C@@H]3CO[C@H]4[C@@H]3OC[C@H]4O)[nH]c2cc1Cl (stereo partly shown) [Compound I-2-185] | 6 nM | 569% |
| O[C@@H]1CO[C@H]2[C@@H]1OC[C@H]2Oc1nc2nc(NCc3ccccc3F)c(Cl)cc2[nH]1 [Compound I-1-109] | 48 nM | 499% |
| COC/C=C/c1cc(F)c2c(c1)CCC2Nc1nc2nc(O[C@@H]3CO[C@H]4[C@@H]3OC[C@H]4O)[nH]c2cc1Cl (stereo partly shown) [Compound I-2-238] | 4.1 nM | 553% |
| CC(C)(O)CCc1cc(F)c(CNc2nc3nc(O[C@@H]4CO[C@H]5[C@@H]4OC[C@H]5O)[nH]c3cc2Cl)c(F)c1 [Compound I-2-233] | 9.3 nM | 507% |
| OC[C@@H]1C[C@H](Oc2nc3nc(NCc4c(F)cccc4F)c(Cl)cc3[nH]2)CO1 [Compound I-2-19] | 74 nM | 506% |
